Experimental data as given in patent US6432403B1, “Antibodies to polypeptides having prenylcysteine carboxyl methlytransferase activity or inhibiting activity” (New York University, priority 1997, dated 2002).
Entries after “also recorded” stand apart in the source; their conditions may differ.

System: GFP-Nras
Assay: Subcellular localization of GFP-Nras in transfected COS-1 cells (epifluorescence microscopy)
Type: cell-based
Conditions: 200 μM during the 24-hour transfection
Protocol: FIGS. 8A-8C show the effect of a pcCMT inhibitor (AFC) on the subcellular localization of Nras. In FIG. 8A, COS-1 cells were transiently transfected with GFP-Nras and observed live at 24 hours by epifluorescence microscopy to reveal both surface membrane (arrowheads) and intense perinuclear (Golgi) fluorescence. The position of the […] is marked (N). […] Bars indicate […].
Expression of Recombinant pcCMT: The 3.6-kb full-length HL60 pcCMT cDNA and an 852-bp cDNA fragment comprising the ORF were subcloned into the eukaryotic expression vectors pCDM8 and pcDNA3.1 (Invitrogen, Carlsbad, Calif.). Myc-tagged pcCMT was made by adding a sequence encoding the 10-amino acid epitope of c-Myc recognized by monoclonal antibody 9E10 to the C terminus of pcCMT using patch PCR and subcloning into pcDNA3.1. pcCMT tagged at the C terminus with GFP was generated by subcloning the pcCMT ORF into the expression vector pGFP-N3 (Clontech). For pcCMT enzymatic assays, COS-1 cells were grown in 10-cm dishes and transfected with pcCMT with DEAE-dextran as described (Aruffo et al, 1987). For fluorescence microscopy, exponentially growing COS-1, CHO, and NIH3T3 cells were plated the day prior to transfection at 50-60% confluence and transfected with 2 μg of DNA using LipofectAMINE (Life Technologies, Inc.), Gaithersburg, Md.) according to the manufacturer's instructions. […]

Compound: CC(=O)N[C@@H](CSC/C=C(\C)CC/C=C(\C)CCC=C(C)C)C(=O)O [AFC, N-acetyl-S-trans,trans-farnesyl-L-cysteine]
- Effect on membrane localization of GFP-Nras: blocked; also recorded: predominantly cytosolic localization
